# Entries after “also recorded” stand apart in the source; their conditions may differ.
# Key:
# [1] = Gravimetric moisture sorption; format: physicochemical; conditions: relative humidity 0 to 60%, (25.0±0.1) °C
# Method: Moisture sorption isotherms were recorded with an SPSx-1μ moisture sorption analyzer (ProUmid, Ulm). The measurement cycle was started at ambient relative humidity (RH) of 30% and first decreased to 3% RH and then to 0% RH. […] The time per step was set to a minimum of 2 hours and a maximum of 6 hours. If an equilibrium condition with a constant mass of ±0.01% within 1 hour was reached before the maximum time for all examined samples the sequential humidity step was applied before the maximum time of 6 hours. If no equilibrium was achieved the consecutive humidity step was applied after the maximum time of 6 hours. The temperature was 25±0.1° C.
# [2] = Stress tests: open storage at room temperature over saturated salt solutions at different relative humidities, analysis by PXRD; format: physicochemical; conditions: for physical form found by PXRD after stress test: open storage
# Method: Powder X-ray diffraction (PXRD) was performed with a PANalytical X'Pert PRO diffractometer equipped with a theta/theta coupled goniometer in transmission geometry, Cu-Kalpha1,2 radiation (wavelength 0.15419 nm) with a focusing mirror and a solid state PIXcel detector. Diffractograms were recorded at a tube voltage of 45 kV and a tube current of 40 mA, applying a stepsize of 0.013° 2-Theta with 40 s per step (255 channels) in the angular range of 2° to 40° 2-Theta at ambient conditions. A typical precision of the 2-Theta values is in the range of ±0.2° 2-Theta. Thus, the diffraction peak of substantially pure form C that appears for example at 6.5° 2-Theta can appear between 6.3 and 6.7° 2-Theta on most X-ray diffractometers under standard conditions.
# Crystalline form C (prepared according to example 1 herein) was open stored at room temperature in desiccators over saturated salt solutions generating different relative humidities.
structure (smiles),measurement,setting,value
"NC(=O)[C@@H]1CC[C@@H]2CN1C(=O)N2OS(=O)(=O)O.[Na] [form C, sodium salt of (1R,2S,5R)-7-oxo-6-sulfooxy-1,6-diazabicyclo[3.2.1]octane-2-carboxamide]","weight change, based on the weight of crystalline form C",[1],not more than 0.5%
same,relative humidity at or below which no transformation into any other physical form occurs,[2],≤ 55%
same,physical form found by PXRD after stress test,"[2]; 45% relative humidity (K2CO3), 9 days",substantially pure form C after 9 days and after
same,physical form found by PXRD after stress test,"[2]; 45% relative humidity (K2CO3), 277 days",remains stable; also recorded: substantially pure form C after 9 days and after
same,physical form found by PXRD after stress test,"[2]; 55% relative humidity (Ca(NO3)2 x 4H2O), 9 days",remains stable; also recorded: substantially pure form C after 9 days
same,physical form found by PXRD after stress test,"[2]; 63% relative humidity (NaBr), 3 days",traces of form A detectable after 3 days
same,physical form found by PXRD after stress test,"[2]; 75% relative humidity (NaCl), 3 days",mainly form A with traces of form C after
same,physical form found by PXRD after stress test,"[2]; 86% relative humidity (KCl), one day",form A after one day

# Reference: patent US10265326B2, “Form C of avibactam sodium” (Sandoz AG, priority 2015, dated 2019)
